The subject of one experiment is mutant (Q111) Htt. The experiment is described as follows: Htt mRNA levels in Q111 striatal cells, qPCR. In kind it is cell-based, mouse. The settings on record: 48 hours. As for the experimental part:
(§1) Cell culture—HEK293T, HeLa, MCF7, Jurkat and mouse embryonic fibroblasts (MEFs) cells were grown and maintained in Dulbecco's modified Eagle's medium supplemented with 10% fetal calf serum (Gibco) and 1% penicillin-streptomycin. To avoid NF-κB activity, HeLa cells were kept from reaching confluence and re-plated no more than 10 times following initial thawing. To induce NF-κB activity, cells were treated with […] recombinant human TNF-α (Peprotech) for the indicated times. STHdh Q111 and STHdh Q7 striatal cell lines (Coriell Institute for Medical Research) were grown in Dulbecco's modified Eagle's medium supplemented with 10% fetal calf serum (Gibco), 1% penicillin-streptomycin and 0.4 mg/ml G418 at 33° C. The cells were re-plated no more than 5-6 times, as recommended.
Huntington's disease (HD) is an inherited genetic disorder caused by expansion trinucleotide CAG repeats (36 and higher) encoding glutamine (Q) in the huntingtin (Htt) gene. Expression of the mutant gene in neurons of the striatum and the frontal cortex leads to degeneration of neuronal cells that control body movements, emotions and intellect. […] To examine the potential effect of SPIs in this context, striatal cell lines established from wild type (Q7) or from mutant (Q111) Htt knock-in mice were used. In these cell lines the coding region of the first exon of the mouse Htt gene was replaced with the same region of human wild type (Q7) or mutant (Q111) Htt, as schematically shown in FIG. 6A. The two cell lines were treated for 48 hours with the identified SPIs and following the levels of Htt mRNA were determined.
The compounds were tested as described in Example 4 hereinabove. In brief, Q111 (or Q7, where indicated) expressing Striatal cells were treated with the tested compound at the indicated concentrations for 48 hours. Then, RNA was extracted and levels of Htt mRNA were determined by qRT-PCR and normalized to β-actin. The data was analysed using GraphPad Prism software.
On the technique in general: Quantitative PCR measures a nucleic acid by following its amplification.

In experiment [1] the test system is pro-inflammatory genes A20, CCL20, IL6, IL8, CXCL2, JUNB and IEX1. Briefly: mRNA levels of pro-inflammatory genes under basal conditions, HeLa, RT-qPCR. It counts as cell-based, human. As to conditions: HeLa cells, 2 hours, 50 μM SPI. The method, then: as §1
(§2) RNA analysis—Total RNA was extracted using Tri-reagent (Bio-Lab Chemicals) and Direct-Zol™ RNA MiniPrep kit (Zymo Research). Following, cDNA was synthesized from […] of total RNA using a High-Capacity cDNA Reverse Transcription Kit (ABI, Thermo Fisher Scientific). cDNA samples were analyzed by quantitative PCR (qPCR) in a ViiA 7 Real-Time PCR System using Fast qPCRBIO SYBR Green Mix (PCR Biosystems).
Thus, a subset of Spt5-responsive pro-inflammatory genes from the aforementioned studies and from others (Aida et al., 2006; Fujita et al., 2009), namely A20, CCL20, IL6, IL8, CXCL2, JUNB and IEX1, were selected and the effect of the identified SPIs on their expression under basal conditions and in response to NF-κB activation was tested (FIGS. 2A-C and 3A-C). Specifically, for analyzing expression under basal conditions, Hela cells were treated with vehicle (DMSO) or SPI for 2 hours and following RNA was extracted and analyzed by RT-qPCR.

The test system is the same in experiment [2]. The experiment is described as follows: mRNA levels of pro-inflammatory genes under TNFα-induced conditions, HeLa, RT-qPCR. As to conditions: for Down-regulating transcription of pro-inflammatory genes under TNFα induced conditions (i.e. inhibiting transcription elongation of pro-inflammatory genes induced by Spt5): HeLa cells, SPI 1 hour then TNFα 1 hour. It counts as cell-based, human. The method, then: as §1, §2
In the next step, the effect of the identified SPIs on expression of the selected genes following NF-κB activation was analyzed. Specifically, Hela cells were pre-incubated with DMSO or SPI (50 μM or less) for 1 hour followed by treatment with TNFα for an additional 1 hour.

The next experiment concerns Spt5 activities. Briefly: Combined effects on the various Spt5 activities (summary of Examples 1-4). It counts as cell-based.

SMILES strings stand for the structures.

Turning to `Cn1cc(-c2ccncc2)c(-c2ccc(OCc3ccc4ccccc4n3)cc2)n1` [SPI-95], the “effect on mutant (Q111) Htt mRNA expression, in words” value in the experiment with mutant (Q111) Htt is reported as “did not affect mutant Htt expression”. Also, the “Up-regulation of pro-inflammatory genes under basal conditions (i.e. inhibiting proximal promoter pausing of pro-inflammatory genes induced by Spt5)” value in experiment [1] is “+ (+ >1.6)”. The “Down-regulating transcription of pro-inflammatory genes under TNFα induced conditions (i.e. inhibiting transcription elongation of pro-inflammatory genes induced by Spt5)” value in experiment [2] is “++ (++ >65%)”. Further, the “effect on TNFα-induced levels of pro-inflammatory genes, in words” value in experiment [2] (HeLa, SPI (50 μM or less) 1 hour then TNFα 1 hour) was “affected mainly the genes that were strongly induced by the TNFα treatment”. Moreover, the “classification by effect on the various Spt5 activities, in words” value in the experiment on Spt5 activities is “affected the basal and the TNFα-induced pro-inflammatory gene transcription”.
As for `O=C1C(=Cc2cccc(O)c2)CSCC1=Cc1cccc(O)c1` [SPI-157], in the experiment with mutant (Q111) Htt, the “effect on mutant (Q111) Htt mRNA expression, in words” value is given as “did not affect mutant Htt expression”. Also, the “Up-regulation of pro-inflammatory genes under basal conditions (i.e. inhibiting proximal promoter pausing of pro-inflammatory genes induced by Spt5)” value in experiment [1] is “++ (++ >3)”. Besides, the “Down-regulating transcription of pro-inflammatory genes under TNFα induced conditions (i.e. inhibiting transcription elongation of pro-inflammatory genes induced by Spt5)” value in experiment [2] is “+++ (+++ represent >80% inhibition)”. The “classification by effect on the various Spt5 activities, in words” value in the experiment on Spt5 activities is “affected the basal and the TNFα-induced pro-inflammatory gene transcription”.

(Values after patent publication US12661353B2, “SPT5 inhibitors and uses thereof” (Yeda Research and Development Co. Ltd., priority 2020, dated 2026).)
